Earlier results in the CATMoS acute toxicity set (Mansouri et al. 2021).
“And” between values parts separate entries of the source, which are not always exact repeats. Equal values may be shown once.

Test: rat acute oral toxicity
Settings: in vivo

Compound	LD50
CCOP(=O)(OCC)OC(=CBr)c1ccc(Cl)cc1Cl	21.4 mg/kg
Nc1nc2cccc(Cl)c2o1	410 mg/kg
O=C1c2ccccc2C(=O)c2c(Nc3ccc(Oc4ccc(S(=O)(=O)O)cc4)cc3)ccc(Nc3ccc(Oc4ccc(S(=O)(=O)O)cc4)cc3)c21	8550 mg/kg
CCCCC(=O)OCC(=O)[C@H]1[C@H](C)C[C@H]2[C@@H]3C[C@H](F)C4=CC(=O)C=C[C@]4(C)[C@@]3(F)[C@@H](O)C[C@@]21C	3100 mg/kg
CCN(CC)CCOCCOC(=O)C(CC)(CC)c1ccccc1	183 mg/kg
NS(=O)(=O)c1cc(Cl)c(Cl)c(S(N)(=O)=O)c1	10100 mg/kg
C=C(CCC)C1C(C=C(C)C)C1(C)C (configuration not stated)	2600 mg/kg
COc1cc(Br)c2oc(C3CCNCC3)cc2c1	310 mg/kg
O=C1NC(=O)C(c2ccccc2)(c2ccccc2)N1	1530 mg/kg
COP(=S)(OC)Oc1cnc2ccccc2n1	900 mg/kg
CC(Cl)(C=O)CCl (configuration not stated)	1620 mg/kg
CC(Cc1ccc(C(C)(C)C)cc1)CN1C[C@@H](C)O[C@@H](C)C1 (single isomer, unassigned)	3540 mg/kg
COC(CC(C)=O)OC	6200 mg/kg
OCCN1CCN(CCCN2c3ccccc3Sc3ccc(Cl)cc32)CC1	318 mg/kg and 210 mg/kg
Cc1cc(=O)[nH]c(=O)[nH]1	64500 mg/kg
Cc1cc(N)n(-c2ccccc2)n1	2500 mg/kg
Cc1cc(NC(=O)c2ccccc2O)n(-c2ccccc2)n1	1320 mg/kg
CCCCCCCCCCCCCCN(CC)C(C)(CO)CO	1500 mg/kg
CCN1CCCc2ccccc21	1780 mg/kg
CC(=O)C=Cc1ccc2c(c1)OCO2	4000 mg/kg
C[N+]1(C)CCC(OC(=O)C(O)(c2ccccc2)c2cccs2)C1 (configuration not stated)	3580 mg/kg
CCC(C)OCCO (configuration not stated)	790 mg/kg
NNC(=O)CSc1cc(Oc2ccc(F)cc2)ncn1	400 mg/kg
O=C1NC(=O)C2(c3ccc(Cl)cc3)CC12 (configuration not stated)	1550 mg/kg

Compound	LD50
CC(C)COC(=O)c1ccccc1	5600 mg/kg
CCC(C)c1ccc(OC(=O)NC)cc1 (configuration not stated)	44 mg/kg
CCN(CC)CCN(CCN(CC)CC)n1cc(-c2ccc(Cl)cc2)c2cc(Cl)ccc21	780 mg/kg
CCCCC(CC)COC(=O)c1ccccc1C(=O)O (configuration not stated)	1340 mg/kg
CC(C)CCCC1CCC(C)(C(=O)NCC(=O)O)CC1 (configuration not stated)	10300 mg/kg
O=S(=O)(O)C(F)(F)C(F)(F)C(F)(F)C(F)(F)C(F)(F)C(F)(F)C(F)(F)C(F)(F)F	251 mg/kg and 154 mg/kg
CN1CN(CCO)CSC1=S	1000 mg/kg
CNC(C)Cc1ccccc1OC (configuration not stated)	630 mg/kg
CCCc1c(OCCCCc2nnn[nH]2)ccc(C(C)=O)c1O	650 mg/kg
CCOC(=O)Nc1ccc(NC(Cc2ccccc2)c2ccccc2)nc1N (configuration not stated)	163 mg/kg
CCCCCCCCc1ccc(C)cc1O	4000 mg/kg
COc1ccc2c(c1OC)C(=O)O[C@@H]2[C@H]1c2c(cc3c(c2OC)OCO3)CCN1C	1520 mg/kg
CC(=O)OCC=Cc1ccccc1	3300 mg/kg
O=C(O)C1=CC(=C(c2ccc(O)c(C(=O)O)c2)c2ccc(O)c(C(=O)O)c2)C=CC1=O	9000 mg/kg
COc1cc2c3cc1Oc1cc(ccc1O)C[C@@H]1c4c(cc(OC)c(O)c4Oc4ccc(cc4)C[C@@H]3N(C)CC2)CC[N+]1(C)C	28 mg/kg
COP(=O)(OC)Oc1ccc([N+](=O)[O-])c(C)c1	24 mg/kg
COc1ccc(CC2CNC(=O)N2)cc1OC1CCCC1 (configuration not stated)	600 mg/kg
CCCN(CCC)c1c([N+](=O)[O-])cc(C(C)=O)cc1[N+](=O)[O-]	750 mg/kg
CCOC(C1=NCC(C)(CC)CN1)c1cccc(F)c1 (configuration not stated)	165 mg/kg
COC(=O)[C@H](C)N(OC)c1c(C)cccc1C	566 mg/kg
O=c1[nH]sc2ccccc12	1020 mg/kg
CN(C)C(CSC#N)CSC#N	125 mg/kg and 82 mg/kg
CNC(=O)Oc1ccccc1C1CCCC1	187 mg/kg
CCSC(C)CC1CC(=O)C(C(=O)CC)C(=O)C1 (configuration not stated)	170 mg/kg

Compound	LD50
N#CC(Cl)(Cl)CCl	200 mg/kg and 250 mg/kg
CCN(CC)CCOCc1cc(Br)cc(Br)c1OC	500 mg/kg
O[C@@H]([C@H](O)[C@H](O)CBr)[C@H](O)CBr	1500 mg/kg
Cc1ccc(N)nc1	200 mg/kg
CON(C)C(=O)CC(SP(=S)(OC)OC)C(=O)N(C)OC (configuration not stated)	14 mg/kg
CCN(CC)CCO	1300 mg/kg
Cc1cnc(C)c(C)n1	806 mg/kg
COc1ccc(C(CCCc2ccccc2)N(C)C)cc1OC (configuration not stated)	500 mg/kg
CCOC(C1=NCC(C)(C)CN1)c1ccccc1Cl (configuration not stated)	310 mg/kg
CC=CC(C)=O	3200 mg/kg
CCOC(=O)C1=C(C)NC(C)=C(C(=O)OCC)C1c1ccccc1C(F)(F)F	1220 mg/kg
COc1ccc(NC(=O)N(C)C)cc1Cl	1600 mg/kg
O=C(SCc1ccccc1)N1CCOCC1	50 mg/kg
O=C1NN=C(c2ccccc2)CO1	441 mg/kg
FC(F)(F)C(F)(F)C(F)(F)C(F)(F)C(F)(F)C(F)(F)C(F)(F)C[n+]1ccccc1	1160 mg/kg
CC(C)COc1ccc2ccccc2c1	5930 mg/kg
O=[N+]([O-])c1ccccc1C1OCC(CCl)O1 (configuration not stated)	65 mg/kg
OC1(c2ccc(Cl)c(Cl)c2)c2ccccc2C2=NCCN21 (configuration not stated)	353 mg/kg
CCOc1ccc([N+](=O)[O-])cc1CNCCBr	25 mg/kg
CC(c1ccccc1)N(C)N=O (configuration not stated)	600 mg/kg
CCOC(=S)SCC#N	210 mg/kg
CCOC1CCCCC1O (configuration not stated)	804 mg/kg
FC(F)(F)C(F)(F)OC(F)(F)C(F)(F)F	20000 mg/kg
CC(=O)NO	4800 mg/kg
